Data set [1] can be described thus: Toxicity in Artemia salina. Format: organism-based. Conditions: in vivo.
For a further data set, the system named is HT-29. Put plainly: Cytotoxicity against human HT-29 cells after 7 days by MTT assay. Format: functional. Conditions: HT-29, 168 h, read-out: ED50 (the source's name). (Tetrazolium dyes change colour on reduction, which living cells bring about.)
The subject of the next data set is Aedes aegypti. The experiment in a line: Insecticidal activity against yellow fever mosquito larvae. It is filed as functional.
A further data set has as its system MCF7. Put plainly: Cytotoxicity against human MCF7 cells after 7 days by MTT assay. The note with it: MCF7, 168 h, read-out: ED50 (the source's name). Format: functional.
The subject of the next data set is A549. The experiment in a line: Cytotoxicity against human A549 cells after 7 days by MTT assay. It is filed as functional. The note with it: A549, 168 h, read-out: ED50 (the source's name).

In brackets after ≈: the same amount, converted by molar mass.

As usually defined, the LC50 is the concentration that kills 50% of the test population. A low value points to a more lethal substance. `CC1=C[C@@H]2[C@@H](CC1=O)[C@](C)(O)CC[C@H]2C(C)C`: the median lethal concentration (LC50) in data set [1] stood at 200 µg/mL (≈ 846 µM); in the data set on Aedes aegypti, 50 µg/mL (≈ 212 µM). The figures for the EC50 in the data set on HT-29, in the data set with MCF7 and in the data set on A549 were 32.5 µg/mL (≈ 138 µM), 30.1 µg/mL (≈ 127 µM) and 32.2 µg/mL (≈ 136 µM), respectively.

Regarding `CC(C)[C@@H]1CC[C@@](C)(O)[C@]2(O)[C@@H](O)C[C@@H](C)C[C@@H]12`, the values for the LC50 (in data set [1]; with Aedes aegypti) were 84.8 µg/mL (≈ 331 µM) and above 250 µg/mL, respectively. For the same molecule, the EC50 in the data set with HT-29 turned out to be 12 µg/mL (≈ 46.8 µM); in the data set on MCF7, 41 µg/mL (≈ 160 µM); in the data set on A549, 13.3 µg/mL (≈ 52 µM).

Take `CC1=C[C@@H]2[C@@H](CC1)[C@](C)(O)CC[C@H]2C(C)C`: the median lethal concentration (LC50) is 9.4 µg/mL (≈ 42.3 µM) in data set [1] and 2 µg/mL (≈ 8.99 µM) with Aedes aegypti. The EC50 is 0.778 µg/mL (≈ 3.5 µM) in the data set on HT-29, 13.1 µg/mL (≈ 58.7 µM) in the data set with MCF7 and 11.1 µg/mL (≈ 49.9 µM) in the data set with A549.

For `CC(C)c1cc2c(cc1O)[C@@]1(C)CCCC(C)(C)[C@@H]1CC2` [FERRUGINOL], the values for the LC50 (in data set [1]; in the data set with Aedes aegypti) were 42.3 µg/mL (≈ 148 µM) and 3 µg/mL (≈ 10.5 µM), respectively. Further, the EC50 in the data set with HT-29 amounted to 6.43 µg/mL (≈ 22.4 µM); in the data set with MCF7, 23.4 µg/mL (≈ 81.8 µM); with A549, 6.47 µg/mL (≈ 22.6 µM).

Turning to `O=C1OCc2c1cc1ccc3c(c1c2-c1ccc2c(c1)OCO2)OCO3` [HELIOXANTHIN], the 50% lethal concentration (LC50) in data set [1] was above 500 µg/mL; in the data set on Aedes aegypti, 3 µg/mL (≈ 8.61 µM).

As for `CC1=C[C@H]2[C@@H](C(C)C)CC[C@@](C)(O)[C@H]2CC1=O`, the 50% lethal concentration (LC50) in data set [1] was 54.4 µg/mL (≈ 230 µM); in the data set on Aedes aegypti it was 200 µg/mL (≈ 846 µM). Further, the EC50 was 7.85 µg/mL (≈ 33.2 µM) in the data set on HT-29, 12.9 µg/mL (≈ 54.5 µM) with MCF7 and 8.78 µg/mL (≈ 37.1 µM) with A549.

With `COc1cccc2c1C(=O)c1c(O)c3c(c(O)c1C2=O)C[C@@](O)(C(=O)CO)C[C@@H]3O[C@H]1C[C@H](N)[C@H](O)[C@H](C)O1` [DOXORUBICIN], the EC50 in the data set on HT-29 was found to be 0.0357 µg/mL (≈ 0.0657 µM); in the data set on MCF7, 0.189 µg/mL (≈ 0.348 µM); with A549 it was 0.00499 µg/mL (≈ 0.00918 µM).

These data come from ChEMBL document CHEMBL1145682, “Bioactive compounds from Taiwania cryptomerioides” (J Nat Prod, 1997).
